# Patent US20240279220A1, “INDOLE COMPOUNDS AND METHODS OF USE” (Genzyme Corporation, priority 2021, published 2024)
# Test system: NBD1/3D
# Test: Aggregation analysis using differential static light scattering (DSLS), NBD1 thermal stability
# Assay type: binding, Human
# Settings: ΔTagg versus DMSO control; compound at 100 μM
# Summary of the method: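 Thermal stabilisation reported as ΔTagg, i.e. aggregation temperature relative to averaged DMSO wells. Tagg came from the inflection of differential static light scattering imaged 25–70 °C while NBD1 (0.2 mg/ml, Tris pH 7.6 buffer containing ATP, MgCl2, DTT, glycerol) was ramped 1 °C/min.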
row,SMILES,DSLS NBD1/3D Human Stability delta-T (° C.) @ 100 (μM)
1,"Cc1c(Oc2ccc(F)c(-c3nc(Cc4csc(CCC(=O)O)n4)c[nH]3)c2)c(F)cc2[nH]ccc12 [Example 89, 3-(4-((2-(2-Fluoro-5-((6-fluoro-4-methyl-1H-indol-5-yl)oxy)phenyl)-1H-imidazol-4-yl)methyl)thiazol-2-yl)propanoic acid]",B (B: 5-10° C.)
2,"CC(C)(c1cnc(-c2cc(Oc3c(F)cc4[nH]ccc4c3F)ccc2F)[nH]1)c1cccc(CCC(=O)O)c1F [Example 160, 3-(3-(2-(2-(5-((4,6-difluoro-1H-indol-5-yl)oxy)-2-fluorophenyl)-1H-imidazol-5-yl)propan-2-yl)-2-fluorophenyl)propanoic acid]",B (B: 5-10° C.)
3,"Cc1c(Oc2ccc(F)c(-c3ncc(C4(c5cccc(CCC(=O)O)c5)CCOC4)[nH]3)c2)c(F)cc2[nH]ccc12 (stereo not shown) [Example 153, 3-(3-(3-(2-(2-fluoro-5-((6-fluoro-4-methyl-1H-indol-5-yl)oxy)phenyl)-1H-imidazol-5-yl)tetrahydrofuran-3-yl)phenyl)propanoic acid]",A (A: T ≥ 10° C.)
4,"N#Cc1c(CCC(=O)O)cccc1Cc1cnc(-c2cc(Oc3c(F)cc4[nH]ccc4c3F)ccc2F)[nH]1 [Example 122, 3-(2-cyano-3-((2-(5-((4,6-difluoro-1H-indol-5-yl)oxy)-2-fluorophenyl)-1H-imidazol-5-yl)methyl)phenyl)propanoic acid]",B (B: 5-10° C.)
5,"CS(=O)(=O)c1c(Oc2cccc(-c3ncn(Cc4cccc(CCC(=O)O)c4)n3)c2)c(F)cc2[nH]ccc12 [Example 32, 3-(3-((3-(3-((6-Fluoro-4-(methylsulfonyl)-1H-indol-5-yl)oxy)phenyl)-1H-1,2,4-triazol-1-yl)methyl)phenyl)propanoic acid]",B (B: 5-10° C.)
6,"Cc1c(Oc2ccc(F)c(-c3nnc(C(C)(O)c4cccc(CCC(=O)O)c4)[nH]3)c2)c(F)cc2[nH]ccc12 (stereo not shown) [Example 251, 3-(3-(1-(5-(2-fluoro-5-((6-fluoro-4-methyl-1H-indol-5-yl)oxy)phenyl)-4H-1,2,4-triazol-3-yl)-1-hydroxyethyl)phenyl)propanoic acid]",B (B: 5-10° C.)
7,"O=C(O)CCc1cccc(Cc2nnc(-c3cccc(Oc4c(F)cc5[nH]ccc5c4[S+]([O-])C(F)F)c3)[nH]2)c1 (stereo not shown) [Example 25, 3-(3-((5-(3-((4-((Difluoromethyl)sulfinyl)-6-fluoro-1H-indol-5-yl)oxy)phenyl)-4H-1,2,4-triazol-3-yl)methyl)phenyl)propanoic acid]",C (C: ≤5° C.)
8,"C[C@@H](O)C(=O)N1Cc2ccc(C(C)(O)c3cnc(-c4cccc(Oc5c(F)cc6[nH]ccc6c5F)c4)[nH]3)cc2C1 (stereo partly drawn) [Example 219, (2R)-1-(5-(1-(2-(3-((4,6-Difluoro-1H-indol-5-yl)oxy)phenyl)-1H-imidazol-5-yl)-1-hydroxyethyl)isoindolin-2-yl)-2-hydroxypropan-1-one]",C (C: ≤5° C.)
9,"CC(c1cnc(-c2cc(Oc3c(F)cc4[nH]ccc4c3F)ccc2F)[nH]1)c1cccc(CC(=O)O)c1F (single isomer, unassigned) [Example 131B, 2-(3-(1-(2-(5-((4,6-difluoro-1H-indol-5-yl)oxy)-2-fluorophenyl)-1H-imidazol-5-yl)ethyl)-2-fluorophenyl)acetic acid]",B (B: 5-10° C.)
10,"Cc1c(Oc2cccc(-c3ncc(C(O)c4cccc(CC(F)C(=O)O)c4)[nH]3)c2)ccc2[nH]ccc12 (stereo not shown) [Example 172, 2-Fluoro-3-(3-(hydroxy(2-(3-((4-methyl-1H-indol-5-yl)oxy)phenyl)-1H-imidazol-5-yl)methyl)phenyl)propanoic acid]",A (A: T ≥ 10° C.)
11,"Cc1c(Oc2ccc(F)c(-c3ncc(Cc4cc(F)cc(CCC(=O)O)c4)[nH]3)c2)c(F)cc2[nH]ccc12 [Example 108, 3-(3-fluoro-5-((2-(2-fluoro-5-((6-fluoro-4-methyl-1H-indol-5-yl)oxy)phenyl)-1H-imidazol-5-yl)methyl)phenyl)propanoic acid]",B (B: 5-10° C.)
12,"COCCOCCOC(C)(c1cccc(CCC(=O)O)c1)c1cnc(-c2cc(Oc3c(F)cc4[nH]ccc4c3C)ccc2F)[nH]1 (stereo not shown) [Example 233, 3-(3-(1-(2-(2-Fluoro-5-((6-fluoro-4-methyl-1H-indol-5-yl)oxy)phenyl)-1H-imidazol-5-yl)-1-(2-(2-methoxyethoxy)ethoxy)ethyl)phenyl)propanoic acid]",B (B: 5-10° C.)
13,"Cc1c(Oc2ccc(F)c(-c3nnc(Cc4ccc5[nH]c(C(=O)O)cc5c4)[nH]3)c2)c(F)cc2[nH]ccc12 [Example 246, 5-((5-(2-fluoro-5-((6-fluoro-4-methyl-1H-indol-5-yl)oxy)phenyl)-4H-1,2,4-triazol-3-yl)methyl)-1H-indole-2-carboxylic acid]",B (B: 5-10° C.)
14,"CC(C#N)(c1cccc(CCC(=O)O)c1)c1c[nH]c(-c2cc(Oc3c(F)cc4[nH]ccc4c3CC(F)F)ccc2F)n1 (stereo not shown) [Example 55, 3-(3-(1-cyano-1-(2-(5-((4-(2,2-difluoroethyl)-6-fluoro-1H-indol-5-yl)oxy)-2-fluorophenyl)-1H-imidazol-4-yl)ethyl)phenyl)propanoic acid]",B (B: 5-10° C.)
15,"O=C(O)CCc1cccc(Cc2cnc(-c3cc(Oc4c(F)cc5[nH]ccc5c4Cl)ccc3F)[nH]2)c1 [Example 107, 3-(3-((2-(5-((4-chloro-6-fluoro-1H-indol-5-yl)oxy)-2-fluorophenyl)-1H-imidazol-5-yl)methyl)phenyl)propanoic acid]",B (B: 5-10° C.)
16,"Cc1c(Oc2ccc(F)c(-c3ncc(C(C)c4cccc([C@@H]5C[C@H]5C(=O)O)c4F)[nH]3)c2)c(F)cc2[nH]ccc12 (relative stereo) [Example 139E, trans-2-(2-fluoro-3-(1-(2-(2-fluoro-5-((6-fluoro-4-methyl-1H-indol-5-yl)oxy)phenyl)-1H-imidazol-5-yl)ethyl)phenyl)cyclopropane-1-carboxylic acid]",B (B: 5-10° C.)
17,"Cc1c(Oc2ccc(F)c(-c3nc(C4(c5cccc(CCC(=O)O)c5)OCCCO4)c[nH]3)c2)c(F)cc2[nH]ccc12 [Example 231, 3-(3-(2-(2-(2-fluoro-5-((6-fluoro-4-methyl-1H-indol-5-yl)oxy)phenyl)-1H-imidazol-4-yl)-1,3-dioxan-2-yl)phenyl)propanoic acid]",A (A: T ≥ 10° C.)
18,"O=C(O)Cc1cccc(Cn2ccc(-c3cccc(Oc4ccc5[nH]ccc5c4CO)c3)n2)c1 [Example 11, 2-(3-((3-(3-((4-(Hydroxymethyl)-1H-indol-5-yl)oxy)phenyl)-1H-pyrazol-1-yl)methyl)phenyl)acetic acid]",B (B: 5-10° C.)
19,"Cc1c(Oc2cccc(-c3ccn(C(C)c4cccc(CCC(=O)O)c4)n3)c2)ccc2[nH]ccc12 (stereo not shown) [Example 2, 3-(3-(1-(3-(3-((4-methyl-1H-indol-5-yl)oxy)phenyl)-1H-pyrazol-1-yl)ethyl)phenyl)propanoic acid]",B (B: 5-10° C.)
